Results reported in patent US3953497A, “2,4,6-Triiodo-5-methoxyacetamido-N-methylisophthalamic acid and salts, acyl halides and esters thereof” (Mallinckrodt, Inc., priority 1974, dated 1976).

Key:
[1] = Solubility of the sodium salt in water; format: physicochemical
Method: 2,4,6-Triiodo-5-methoxyacetamido-N-methylisophthalamic acid (6.005 g.) was dissolved in water with NaOH solution at pH 7.4 to form a supersaturated solution (7.0 ml.). When the solution was allowed to stand at room temperature overnight, crystallization occurred. The crystals were collected and dried.
The sodium salt (2.71 g.) was then dissolved in water to form an 82% w/v solution (3.3 ml.). After the solution was allowed to stand at 24° overnight some crystallization occurred. The solution was stirred and the supernatant was taken (by centrifugation) for specific gravity measurement (sp. gr. 1.43) and for water determination (found, […] by Karl Fischer method). The solubility of the sodium salt in water was therefore determined to be about 70% w/v at 24°.

rats = conditions: Priewe et al., DAS 1,129,260/1962; cited from earlier work
dogs = conditions: Pfeiffer et al., DOS 2,118,219/1972; cited from earlier work
man = conditions: Pfeiffer et al., DOS 2,118,219/1972; cited from earlier work
[2] = test system: Swiss Albino mice (Charles River); assay: Acute Intravenous Toxicity Studies in Mice (LD50); format: in vivo; conditions: lateral tail vein, 1 ml/min, solutions containing 28.27% of iodine, seven day observation
Method: (§1) The techniques utilized are outlined below.
I. Acute Intravenous Toxicity Studies in Mice
Swiss Albino mice (Charles River) were dosed in the lateral tail vein with solutions of the iodinated compound containing 28.27% of iodine, injected at the rate of 1 ml/min. […] The LD50 values were calculated by the method of Litchfield and Wilcoxon (J. of Pharmac. and Exptl. Therap. 96:99-113, 1949).

in vivo [3] = conditions: mouse, intracerebral, fixed volumes of various concentrations, seven day observation, meglumine salt, read-out: LD50 of Meglumine Salt, Intracerebral (Mice)
Source text: as §1
II. Intracerebral Toxicity in Mice
Swiss Albino mice (Charles River) were used. […] The animals were observed immediately after injections and daily throughout a seven day observation period.

in vivo [4] = conditions: rat, intracisternal, two day observation, meglumine salt, read-out: LD50 of Meglumine Salt, Intracisternal (Rats)
Source text: as §1
III. Intracisternal Toxicity in Rats
Sprague Dawley (Carworth) rats were used. […] After dosing, the animals were housed individually, and observed for immediate reactions and periodically for a two day observation period.

SMILES: CNC(=O)c1c(I)c(NC(=O)COC)c(I)c(C(=O)[O-])c1I.[Na+]
- solubility thermodynamic ([1]; 24°, sodium salt, from specific gravity and Karl Fischer water of supernatant): ~700 mg/mL
- temperature dependence of solubility ([1]; sodium salt in water): highly temperature dependent

SMILES: COCC(=O)Nc1c(I)c(NC(C)=O)c(I)c(C(=O)O)c1I [3-acetamido-5-methoxyacetamido-2,4,6-triiodobenzoic acid]
- LD50 (i.v. in rats) (rats): 16000 mg/kg
- circulatory disturbances in dogs (dogs): strong circulatory disturbances
- circulatory disturbances in man (man): strong circulatory disturbances

SMILES: CNC(=O)c1c(I)c(NC(C)=O)c(I)c(C(=O)O)c1I [Iothalamic Acid, 5-acetamido-2,4,6-triiodo-N-methylisophthalamic acid, reference compound]
- LD50 of Meglumine Salt, I.V. (Mice) [2]: 5742 mg. contained iodine/kg. anima

SMILES: CNC(=O)c1c(I)c(NC(=O)COC)c(I)c(C(=O)O)c1I [meglumine 2,4,6-triiodo-5-methoxyacetamido-N-methylisophthalamate]
- LD50 of Meglumine Salt, I.V. (Mice) [2]: 6700 mg. contained iodine/kg. anima
- LD50 at 168 h (in vivo [3]): 700 mg/kg
- LD50 at 48 h (in vivo [4]): 40 mg/kg
